For data set [1], the system named is CYC yeast strains.
The target of data set [2] is T1, human AR (Homo sapiens, UniProt P10275).
T1 sequence (P10275 1-920): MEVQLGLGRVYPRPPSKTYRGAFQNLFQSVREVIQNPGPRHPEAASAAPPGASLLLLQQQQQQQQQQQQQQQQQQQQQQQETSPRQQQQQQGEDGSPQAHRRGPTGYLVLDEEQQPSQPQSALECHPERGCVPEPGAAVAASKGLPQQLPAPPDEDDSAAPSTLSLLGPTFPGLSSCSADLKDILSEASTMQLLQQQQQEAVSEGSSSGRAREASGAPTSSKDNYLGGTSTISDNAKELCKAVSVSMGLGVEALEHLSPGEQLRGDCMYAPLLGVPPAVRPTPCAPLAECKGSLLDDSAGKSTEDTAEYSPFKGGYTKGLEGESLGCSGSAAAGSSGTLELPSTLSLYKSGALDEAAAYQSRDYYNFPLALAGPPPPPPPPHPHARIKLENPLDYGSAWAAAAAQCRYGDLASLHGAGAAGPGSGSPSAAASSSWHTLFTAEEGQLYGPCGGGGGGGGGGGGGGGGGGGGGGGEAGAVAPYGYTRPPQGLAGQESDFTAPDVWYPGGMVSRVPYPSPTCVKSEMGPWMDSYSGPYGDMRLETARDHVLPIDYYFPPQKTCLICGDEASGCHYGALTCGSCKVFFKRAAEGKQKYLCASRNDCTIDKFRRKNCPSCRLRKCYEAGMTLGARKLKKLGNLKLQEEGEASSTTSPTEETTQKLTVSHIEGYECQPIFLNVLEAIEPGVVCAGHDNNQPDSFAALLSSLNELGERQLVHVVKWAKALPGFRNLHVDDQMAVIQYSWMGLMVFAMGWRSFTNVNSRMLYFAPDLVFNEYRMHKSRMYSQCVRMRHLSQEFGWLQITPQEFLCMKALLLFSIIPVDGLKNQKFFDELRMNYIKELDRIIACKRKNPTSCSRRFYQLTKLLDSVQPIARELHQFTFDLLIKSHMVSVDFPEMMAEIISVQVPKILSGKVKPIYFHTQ
The experiment in a line: AR agonist yeast lacZ reporter gene assay. It is filed as cell-based. For orientation: Reporter assays use an easily measured gene product as a stand-in for the process of interest.

For data set [3], the target named is T2, human ERβ (Homo sapiens, UniProt Q92731). The experiment in a line: ERβ agonist yeast lacZ reporter gene assay. It is filed as cell-based.
The target of data set [4] is T2, human ERβ. The experiment in a line: ERβ antagonist yeast reporter gene assay (competition with E2 at EC50). The conditions noted are these: co-exposure with E2; data not shown.
Data set [5] concerns the target T3, human PR (Homo sapiens, UniProt P06401).
T3 sequence (P06401 1-933): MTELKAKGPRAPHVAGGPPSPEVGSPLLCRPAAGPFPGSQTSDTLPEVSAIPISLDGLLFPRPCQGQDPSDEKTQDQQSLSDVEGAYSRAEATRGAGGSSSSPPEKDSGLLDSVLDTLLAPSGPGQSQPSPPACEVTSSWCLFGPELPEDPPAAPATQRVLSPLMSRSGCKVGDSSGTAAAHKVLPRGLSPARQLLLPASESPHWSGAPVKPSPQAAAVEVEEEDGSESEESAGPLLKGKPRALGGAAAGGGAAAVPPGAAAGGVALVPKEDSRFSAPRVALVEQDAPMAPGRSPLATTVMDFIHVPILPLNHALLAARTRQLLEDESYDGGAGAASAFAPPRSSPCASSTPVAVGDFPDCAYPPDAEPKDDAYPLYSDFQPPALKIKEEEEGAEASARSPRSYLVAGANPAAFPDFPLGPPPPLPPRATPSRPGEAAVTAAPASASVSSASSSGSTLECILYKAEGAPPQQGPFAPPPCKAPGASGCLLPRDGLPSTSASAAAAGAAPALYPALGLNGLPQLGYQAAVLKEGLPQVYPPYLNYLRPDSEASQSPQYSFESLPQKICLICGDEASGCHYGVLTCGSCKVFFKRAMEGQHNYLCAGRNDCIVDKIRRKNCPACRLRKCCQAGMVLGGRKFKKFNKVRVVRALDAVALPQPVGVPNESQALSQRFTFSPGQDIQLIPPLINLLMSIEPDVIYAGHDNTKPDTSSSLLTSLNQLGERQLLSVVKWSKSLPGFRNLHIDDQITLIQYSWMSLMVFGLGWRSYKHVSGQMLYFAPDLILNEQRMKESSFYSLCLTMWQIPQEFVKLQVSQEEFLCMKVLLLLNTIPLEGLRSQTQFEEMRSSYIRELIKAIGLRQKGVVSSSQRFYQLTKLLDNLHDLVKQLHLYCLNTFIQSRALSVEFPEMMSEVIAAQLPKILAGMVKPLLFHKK
As to the kind of experiment: PR agonist yeast lacZ reporter gene assay. The conditions noted are these: for EC50: EC50, agonist assay.

In data set [6] the target is T1, human AR. As to the kind of experiment: AR antagonist yeast reporter gene assay (competition with testosterone at EC50). The format is cell-based. The following applies: with testosterone […] nM.
For data set [7], the target named is T4, human ERα (Homo sapiens, UniProt P03372).
T4 sequence (P03372 1-595): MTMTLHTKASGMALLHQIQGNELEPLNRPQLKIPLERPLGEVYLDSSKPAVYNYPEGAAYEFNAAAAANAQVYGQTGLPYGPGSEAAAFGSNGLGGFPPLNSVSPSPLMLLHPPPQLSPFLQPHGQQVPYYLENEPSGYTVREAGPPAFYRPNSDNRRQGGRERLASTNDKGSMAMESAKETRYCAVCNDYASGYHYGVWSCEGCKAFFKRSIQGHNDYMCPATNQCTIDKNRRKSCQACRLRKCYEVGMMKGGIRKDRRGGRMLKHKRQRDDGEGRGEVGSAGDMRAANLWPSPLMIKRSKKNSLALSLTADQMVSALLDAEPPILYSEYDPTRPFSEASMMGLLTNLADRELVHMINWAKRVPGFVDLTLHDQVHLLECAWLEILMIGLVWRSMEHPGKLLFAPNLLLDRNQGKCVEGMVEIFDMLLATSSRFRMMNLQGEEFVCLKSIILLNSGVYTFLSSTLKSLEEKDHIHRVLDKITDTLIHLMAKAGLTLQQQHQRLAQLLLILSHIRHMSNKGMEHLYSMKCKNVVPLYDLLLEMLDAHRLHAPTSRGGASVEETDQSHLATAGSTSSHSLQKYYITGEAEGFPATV
The experiment in a line: ERα agonist yeast lacZ reporter gene assay. The format is cell-based. The following applies: strain cwp1Δcwp2Δ.

The target of data set [8] is T3, human PR. The experiment in a line: PR antagonist yeast reporter gene assay (competition with PS at EC50). The format is cell-based. The conditions noted are these: strain cwp1Δpdr5Δ.
The mark [9] stands for this setting: agonist assay, strain W303a, read-out: EC50.
Setting [10] is: agonist assay, strain cwp1Δcwp2Δ, read-out: EC50.

“And” between values parts separate entries of the source, which are not always exact repeats. Equal values may be shown once. Read-outs that look alike come from different tables or passages of the source.

T2 sequence (Q92731 whole entry): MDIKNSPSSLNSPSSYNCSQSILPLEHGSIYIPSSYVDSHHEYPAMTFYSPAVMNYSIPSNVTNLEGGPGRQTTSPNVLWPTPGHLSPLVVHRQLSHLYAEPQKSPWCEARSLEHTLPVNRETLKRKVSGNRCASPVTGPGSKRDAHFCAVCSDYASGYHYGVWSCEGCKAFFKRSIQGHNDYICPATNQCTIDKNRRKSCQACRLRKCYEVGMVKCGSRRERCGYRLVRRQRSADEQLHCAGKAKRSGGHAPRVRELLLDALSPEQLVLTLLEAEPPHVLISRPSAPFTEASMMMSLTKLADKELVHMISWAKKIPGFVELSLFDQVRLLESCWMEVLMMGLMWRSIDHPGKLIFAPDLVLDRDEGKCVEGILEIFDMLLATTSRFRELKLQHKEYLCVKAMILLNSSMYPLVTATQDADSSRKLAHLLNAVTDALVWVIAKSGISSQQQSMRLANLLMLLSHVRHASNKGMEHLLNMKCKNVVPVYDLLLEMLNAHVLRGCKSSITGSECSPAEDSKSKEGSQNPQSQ

In the case of `C[C@H]1CCC[C@H](O)CCCCCc2cc(O)cc(O)c2C(=O)O1` [Zer, zeranol], in data set [1] (CYC W303a and corresponding CYC mutant strains), the “constitutive expression of β-gal in reference CYC strains” value (from here on “constitutive expression of β-gal”) is given as “not affected”.
On to `C[C@]12CC[C@@H]3c4ccc(O)cc4C[C@@H](CCCCCCCCC[S+]([O-])CCCC(F)(F)C(F)(F)F)[C@H]3[C@@H]1CC[C@@H]2O` (some centres unmarked) [ICI, ICI 182, 780], for which the “constitutive β-gal expression in control CYC strains” value in data set [1] was “not repressed”.
The term EC50 denotes the midpoint of the concentration-response curve. As for `C[C@]12CC[C@@H]3c4ccc(O)cc4CC[C@H]3[C@@H]1CCC2=O` [E1, estrone], the EC50 in data set [2] (EC50) is 900 nM and 860 nM and 96 nM.
Take `Cc1c(-c2ccc(O)cc2)nn(-c2ccc(O)cc2)c1-c1ccc(OCCN2CCCCC2)cc1.Cl.Cl` [MPP, methyl-piperidino-pyrazoledihydrochloride hydrate]: the EC50 in data set [3] (setting [9]) amounted to 19200 nM; in data set [3] (setting [10]) it was 2730 nM. Besides, the antagonistic activity result in data set [4] was “undetectable”.
Regarding `C[C@]12C[C@H](O)[C@H]3[C@@H](CCC4=CC(=O)CC[C@@]43C)[C@@H]1CC[C@@H]2C(=O)CO` [CS, corticosterone], the EC50 in data set [5] (strain cwp1Δcwp2Δ) came out at 20100 nM; in data set [5] (strain cwp1Δpdr5Δ), 18300 nM.
For `CC#C[C@]1(O)CC[C@H]2[C@@H]3CCC4=CC(=O)CCC4=C3[C@@H](c3ccc(N(C)C)cc3)C[C@@]21C` [Mif, mifepristone], the “constitutive expression of β-gal” value in data set [1] is recorded as “not affected”.
With `CC/C(=C(\c1ccccc1)c1ccc(OCCN(C)C)cc1)c1ccccc1` [Tam, tamoxifen], the “constitutive β-gal expression in control CYC yeasts” value in data set [1] (100 μM) is listed as “less than 60%”.
As a reminder, the IC50 is the concentration that inhibits the measured activity by half. With `C[C@]12CCC3=C4CCC(=O)C=C4CC[C@H]3[C@@H]1CC[C@@]2(O)CC#N` [DNG, Dienogest], the “androgenic activity, fold weaker than earlier generation progestins with respect to minimal detection limit concentration” value in data set [2] (AR-expressing mutant yeast strains) amounted to 100 fold. For the same compound, the EC50 came out at 9780 nM in data set [2] (setting [9]); 8100 nM in data set [2] (agonist assay, strain cwp1Δpdr5Δ, read-out: EC50); 2430 nM in data set [2] (agonist assay, strain pdr5Δpdr10Δ, read-out: EC50); 6100 nM in data set [5] (strain cwp1Δcwp2Δ); 860 nM in data set [5] (strain cwp1Δpdr5Δ). Moreover, the figures for the IC50 in data set [6] (strain cwp1Δpdr5Δ) and in data set [6] (strain pdr5Δpdr10Δ) were 38100 nM and 30200 nM, respectively. In data set [1], the “constitutive expression of β-gal” value is reported as “Neither DNG nor DRSP inhibited”.
Turning to `C[C@]12CCC(=O)C=C1[C@@H]1C[C@@H]1[C@H]1[C@@H]3[C@@H]4C[C@@H]4[C@@]4(CCC(=O)O4)[C@@]3(C)CC[C@@H]12` [DRSP, drospirenone], the “constitutive expression of β-gal” value in data set [1] is listed as “Neither DNG nor DRSP inhibited”.
For `C[C@]12CC[C@@H]3c4ccc(O)cc4CC[C@H]3[C@@H]1C[C@@H](O)[C@@H]2O` [E3, estriol], the EC50 in data set [3] (setting [9]) came to 34 nM; in data set [3] (setting [10]), 1.22 nM. Besides, the Detection limit is 0.1 µM in data set [3] (strain W303a) and 10^−4 μM in data set [3] (strain cwp1Δcwp2Δ).
As to `C#C[C@]1(O)C=C[C@H]2[C@@H]3CCC4=CC(=O)CC[C@@H]4[C@H]3CC[C@@]21CC` [GTD, gestodene], in data set [2], the “androgenic activity, fold weaker than earlier generation progestins with respect to minimal detection limit concentration” value was found to be 10 fold. Further, the EC50 in data set [2] (EC50) was 1060 nM and 400 nM; in data set [5] (strain W303a) it was 220 nM; in data set [5] (strain cwp1Δpdr5Δ), 0.996 nM.
With `CCCc1c(-c2ccc(O)cc2)nn(-c2ccc(O)cc2)c1-c1ccc(O)cc1` [PPT, propyl pyrazole triol], in data set [7], the “fold lower EC50 value for ERα than ERβ” value turned out to be 2.5 fold and the “fold lower minimum detection limit for ERα than ERβ” value is reported as 10 fold. For the same compound, the EC50 in data set [3] (read-out: EC50) was 13700 nM and 2340 nM.
On to `CC(C)C(=O)Nc1ccc([N+](=O)[O-])c(C(F)(F)F)c1` [Flu, flutamide], for which, in data set [1], the “constitutive expression of β-gal” value is recorded as “not affected”.
As to `C[C@]12CC[C@H]3[C@@H](CCC4=CC(=O)CC[C@@]43C)[C@@H]1CC[C@@H]2O` [TS, Testosterone], the EC50 in data set [3] (EC50, agonist assay, strain cwp1Δcwp2Δ) was 870 nM; in data set [5] (strain cwp1Δcwp2Δ), 29000 nM; in data set [5] (strain cwp1Δpdr5Δ) it was 31000 nM.
Regarding `CC(=O)S[C@@H]1CC2=CC(=O)CC[C@]2(C)[C@H]2CC[C@@]3(C)[C@@H](CC[C@@]34CCC(=O)O4)[C@H]12` [Spi, spironolactone], the Maximum inhibition in data set [8] came out at 34.0%. Moreover, the “constitutive expression of β-gal” value in data set [1] is on record as “not affected”.
`C[C@]12CCC(=O)C=C1CC[C@@H]1[C@@H]2[C@@H](O)C[C@]2(C=O)[C@@H](C(=O)CO)CC[C@@H]12` [AS, aldosterone]: in data set [5] (strain cwp1Δpdr5Δ), the EC50 worked out at 9700 nM.
As for `CC(=O)[C@H]1CC[C@H]2[C@@H]3CCC4=CC(=O)CC[C@]4(C)[C@H]3CC[C@]12C` [PS, progesterone], the figures for the Detection limit in data set [5] (strain W303a), in data set [5] (strain cwp1Δcwp2Δ) and in data set [5] (strain cwp1Δpdr5Δ) were 10 µM, 0.01 µM and 0.01 µM, respectively.

For the origin of these results see PMC7251871, “Construction of reporter gene assays using CWP and PDR mutant yeasts for enhanced detection of various sex steroids” (Genes and Environment, 2020).
